According to patent US10759803B2, “Asparagine endopeptidase (AEP) inhibitors for managing cancer and compositions related thereto” (priority 2014, dated 2020):

Assays:
AEP = target: T1, AEP (Homo sapiens, UniProt Q99538); test: DTT / L-cysteine reversibility of AEP inhibition; type: biochemical; settings: 10 mM DTT or L-cysteine added after 15 min
T1 construct: tested with purified active AEP, IC50 values for the top 8 candidates were found
T1 sequence (Q99538 18-323 limits assumed): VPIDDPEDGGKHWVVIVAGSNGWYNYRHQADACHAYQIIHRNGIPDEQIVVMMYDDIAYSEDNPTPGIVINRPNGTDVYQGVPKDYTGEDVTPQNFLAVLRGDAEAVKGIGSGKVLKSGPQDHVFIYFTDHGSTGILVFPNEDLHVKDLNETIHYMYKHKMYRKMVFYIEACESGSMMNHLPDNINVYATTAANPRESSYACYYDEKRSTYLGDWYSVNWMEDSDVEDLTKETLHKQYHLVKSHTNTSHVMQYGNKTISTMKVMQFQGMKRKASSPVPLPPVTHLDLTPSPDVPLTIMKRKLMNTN
Method: AEP was reacted with specified inhibitor, after 15 min 10 mM DTT or L-cysteine was added to the reaction and the fluorescent signal was read for an additional 15 min. At the end of the second 15 min incubation, the percentage of product formed in the presence of each compound was determined in comparison to the DMSO control reaction.
Although it is not intended that embodiments of this disclosure be limited by any particular mechanism, to gain additional insight into the mechanism utilized by the inhibitors for abrogation of AEP activity, their reversibility in the presence of free thiols was determined. The addition of a strong reducing agent, such as DTT, or a weaker reducing agent, L-cysteine, to an inhibited reaction can be used to out-compete the inhibitory agent and restore catalytic activity to an enzyme with an active-site thiol residue. Here, a similar approach was used by adding a reducing agent, either DTT or L-cysteine, to a reaction, in which AEP had been incubated with a specified inhibitor, in an attempt to reverse the effects of the inhibitor. […] For compounds BB1 and 38, this increase in enzymatic activity may be due to the reduction of a disulfide linkage between the inhibitor and the enzyme, since these compounds contain thiols. Compound 10 contains a thiocyanate and may undergoes nucleophilic attack by the enzyme's active-site thiolate to form a thioimidate enzyme-inhibitor complex. Under acidic conditions, this complex is reducible by either a strong reducing agent, such as DTT, or the weaker L-cysteine.

[1] = target: T2, endogenous AEP in human B lymphoblastoid pala cells (Homo sapiens, UniProt Q99538); test: AEP inhibition in intact Pala cells; type: cell-based; settings: 2 hrs incubation, residual enzymatic activity in lysate
T2 construct: human B lymphoblastoid pala cells, which are rich in endogenous AEP; endogenous in cells; host or cells: human B lymphoblastoid Pala cells
T2 sequence (Q99538 18-323): T1 sequence (Q99538 18-323 limits assumed)
Method: The cells were incubated with inhibitors for 2 hrs then cells washed, harvested and lysed and the residual enzymatic activity was determined. Lysate was normalized by Bradford assay and the experiment was performed in triplicate and the mean results and SEM were plotted.
In an attempt to assess the activity of the compounds in intact cells, the compounds were incubated with human B lymphoblastoid pala cells, which are rich in endogenous AEP and have been used for inhibiting AEP in cellular assay.

[2] = tested on: amyloid precursor protein (APP) cleavage; test: APP cleavage in OGD-treated primary cortical neurons; type: cell-based
Method: A. AEP activity, measured in primary neuronal cultures with 5 μM Cbz-Ala-Ala-Asn-AMC (x-axis denotes neurons were treated with 0.1 μM or 1.0 μM specified compound). B. Caspase activity, measured in primary neuronal cultures with 5 μM Ac-Asp-Glu-Val-Asp-AMC. C. Cathepsin activity, measured in primary neuronal cultures with 5 μM D-Val-Leu-Lys-AMC. D. Inhibition of APP cleavage. Lysates of primary cortical neurons pre-incubated with compounds for 30 min, underwent OGD for 4 hrs, were reperfused for 18 hrs (normoxia neurons remained at normoxic conditions). E. APP can be cleaved in a dose-dependent manner. Lysates of primary cortical neurons pre-incubated with compounds for 30 min, underwent OGD for 4 hrs, were reperfused for 18 hrs (normoxia neurons remained at normoxic conditions).
Depriving cells of oxygen and glucose is a cellular model that is employed to trigger acidosis in cultured cells. The efficacy of the compounds in a cellular model of oxygen-glucose deprivation (OGD) was determined in an effort to mimic the effects of stroke in primary cultured neurons. As a result of depriving neurons of oxygen and glucose-containing medium, AEP activity was doubled (FIG. 7A, ‘DMSO-Norm’ compared to ‘DMSO-OGD’), while Caspase-3 and Cathepsin activities remained relatively unchanged. […] Cleavage of APP is observed in response to only DMSO treatment (FIG. 7D, lane 2), and it appears that upon the treatment of 1 μM of compounds 10, 11, and 12, and just 0.1 μM of compound s31, 38 and 64, the cleavage was blocked, presumably due to AEP inhibition.

CYP2D6 = CYP2D6 (Homo sapiens, UniProt P10635); test: CYP inhibition screening, CYP2D6; type: in vitro ADME
CYP3A4 = CYP3A4 (Homo sapiens, UniProt P08684); test: CYP inhibition screening, CYP3A4-Midazolam; type: in vitro ADME
CYP2C19 = CYP2C19 (Homo sapiens, UniProt P33261); test: CYP inhibition screening, CYP2C19; type: in vitro ADME
CYP1A2 = target: T3, CYP1A2 (Homo sapiens, UniProt P05177); test: CYP inhibition screening, CYP1A2; type: in vitro ADME
T3 sequence (P05177 1-516): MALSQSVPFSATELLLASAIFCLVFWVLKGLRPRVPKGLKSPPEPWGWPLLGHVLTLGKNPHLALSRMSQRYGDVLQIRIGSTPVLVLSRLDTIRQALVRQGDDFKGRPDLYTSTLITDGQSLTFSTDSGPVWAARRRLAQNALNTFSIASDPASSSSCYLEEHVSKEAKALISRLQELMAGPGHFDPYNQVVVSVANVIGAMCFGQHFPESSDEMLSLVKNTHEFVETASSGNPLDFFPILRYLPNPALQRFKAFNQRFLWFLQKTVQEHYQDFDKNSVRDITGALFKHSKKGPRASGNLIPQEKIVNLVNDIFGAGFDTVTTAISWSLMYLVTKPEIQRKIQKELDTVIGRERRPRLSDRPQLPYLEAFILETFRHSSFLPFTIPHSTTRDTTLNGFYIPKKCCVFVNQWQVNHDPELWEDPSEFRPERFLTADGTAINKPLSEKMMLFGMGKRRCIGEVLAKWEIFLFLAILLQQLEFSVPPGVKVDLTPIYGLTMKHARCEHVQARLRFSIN

CYP3A = test: CYP inhibition screening, CYP3A-Testosterone; type: in vitro ADME
[3] = BBB-PAMPA permeability assay; type: in vitro ADME
[4] = Human liver microsomal stability screen; settings: Human liver microsomes
[5] = Mouse liver microsomal stability screen; settings: Mouse liver microsomes
Caco-2 monolayer = Caco-2 monolayer permeability screen
Method: To explore the in vitro ADME profiles of the compounds, additional tests were conducted.

CYP2C9 = CYP2C9 (Homo sapiens, UniProt P11712); test: CYP inhibition screening, CYP2C9; type: in vitro ADME
Cathepsin-L = Cathepsin-L (Homo sapiens, UniProt P07711); test: Specificity assay against Cathepsin-L; type: biochemical
Chain of Cathepsin-L (P07711 114-333, species assumed): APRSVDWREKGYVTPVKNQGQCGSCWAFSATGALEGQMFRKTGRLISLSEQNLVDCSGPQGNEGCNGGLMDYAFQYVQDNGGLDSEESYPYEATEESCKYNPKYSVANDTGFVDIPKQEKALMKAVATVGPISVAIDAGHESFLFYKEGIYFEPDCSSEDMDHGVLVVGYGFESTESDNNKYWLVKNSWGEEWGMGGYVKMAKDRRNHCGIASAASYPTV
Method: Purified recombinant enzyme was incubated with various concentrations of inhibitor in appropriate assay buffers in the presence of increasing concentrations of inhibitor. The formation of fluorescent product was monitored in duplicate reactions and the data was fit to appropriate equations to calculate the IC50 values.

Chain of CYP2C9 (P11712 whole entry): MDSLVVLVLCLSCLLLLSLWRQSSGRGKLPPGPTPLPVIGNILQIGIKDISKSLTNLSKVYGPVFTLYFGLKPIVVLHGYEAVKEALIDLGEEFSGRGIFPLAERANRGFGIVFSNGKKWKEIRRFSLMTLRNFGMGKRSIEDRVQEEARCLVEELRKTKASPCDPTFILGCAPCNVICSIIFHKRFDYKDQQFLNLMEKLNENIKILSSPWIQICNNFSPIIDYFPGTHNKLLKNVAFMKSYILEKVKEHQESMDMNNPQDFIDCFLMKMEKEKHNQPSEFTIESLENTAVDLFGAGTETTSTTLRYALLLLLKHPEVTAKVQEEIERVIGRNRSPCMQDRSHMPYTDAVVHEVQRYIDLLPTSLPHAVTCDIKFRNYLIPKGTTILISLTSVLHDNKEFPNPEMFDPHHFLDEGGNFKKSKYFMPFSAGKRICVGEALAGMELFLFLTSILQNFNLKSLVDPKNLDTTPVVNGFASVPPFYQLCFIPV
Chain of CYP3A4 (P08684 whole entry): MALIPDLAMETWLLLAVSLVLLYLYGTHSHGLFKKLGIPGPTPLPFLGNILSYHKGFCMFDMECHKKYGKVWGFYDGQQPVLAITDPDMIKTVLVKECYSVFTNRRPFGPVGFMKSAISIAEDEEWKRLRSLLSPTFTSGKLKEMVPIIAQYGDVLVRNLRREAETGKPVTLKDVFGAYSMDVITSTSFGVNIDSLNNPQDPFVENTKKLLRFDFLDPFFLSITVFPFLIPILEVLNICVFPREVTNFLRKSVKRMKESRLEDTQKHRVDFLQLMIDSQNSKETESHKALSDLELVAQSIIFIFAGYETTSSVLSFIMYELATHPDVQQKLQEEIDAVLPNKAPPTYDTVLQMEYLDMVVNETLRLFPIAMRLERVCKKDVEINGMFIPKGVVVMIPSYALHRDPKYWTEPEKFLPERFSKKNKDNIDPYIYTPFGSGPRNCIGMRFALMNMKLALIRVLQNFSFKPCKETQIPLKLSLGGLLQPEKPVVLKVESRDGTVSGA
Chain of CYP2D6 (P10635 whole entry): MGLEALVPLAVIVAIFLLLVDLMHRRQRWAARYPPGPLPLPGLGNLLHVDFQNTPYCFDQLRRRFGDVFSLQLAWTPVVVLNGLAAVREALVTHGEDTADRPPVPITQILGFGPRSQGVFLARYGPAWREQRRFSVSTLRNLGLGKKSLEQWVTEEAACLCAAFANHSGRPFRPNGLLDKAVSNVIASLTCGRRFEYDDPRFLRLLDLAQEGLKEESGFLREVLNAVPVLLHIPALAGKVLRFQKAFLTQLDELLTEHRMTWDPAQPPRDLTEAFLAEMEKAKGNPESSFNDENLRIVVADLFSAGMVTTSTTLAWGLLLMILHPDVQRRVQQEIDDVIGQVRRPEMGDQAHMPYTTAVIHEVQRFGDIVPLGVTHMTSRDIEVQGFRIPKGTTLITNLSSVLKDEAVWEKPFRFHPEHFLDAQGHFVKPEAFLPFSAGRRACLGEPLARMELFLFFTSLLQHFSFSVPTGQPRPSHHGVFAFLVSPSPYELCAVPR
Chain of CYP2C19 (P33261 whole entry): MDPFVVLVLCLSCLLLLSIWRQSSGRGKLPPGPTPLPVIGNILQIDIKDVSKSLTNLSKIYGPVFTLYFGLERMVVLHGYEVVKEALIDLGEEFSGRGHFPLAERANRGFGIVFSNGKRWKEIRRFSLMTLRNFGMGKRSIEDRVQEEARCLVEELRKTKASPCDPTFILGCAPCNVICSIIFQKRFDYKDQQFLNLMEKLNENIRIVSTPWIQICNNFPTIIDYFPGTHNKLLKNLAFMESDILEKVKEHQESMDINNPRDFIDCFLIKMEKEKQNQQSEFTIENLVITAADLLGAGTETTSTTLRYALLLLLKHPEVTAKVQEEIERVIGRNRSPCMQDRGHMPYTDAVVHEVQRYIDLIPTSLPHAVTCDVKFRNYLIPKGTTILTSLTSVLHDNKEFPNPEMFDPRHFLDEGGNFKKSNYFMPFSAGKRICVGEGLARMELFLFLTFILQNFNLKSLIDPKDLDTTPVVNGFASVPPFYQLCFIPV

N#CSc1cnc(N)s1 [Compound 10]
AEP activity after addition of reducing agent (reversibility) (AEP): regained a substantial amount of activity | IC50 in intact Pala cells [1]: slightly larger IC50 values | APP cleavage after OGD ([2]; 1 μM compound): blocked | APP cleavage after OGD, dose dependence ([2]; FIG. 7E): dose-dependent decrease

COc1ccc(N2CCN(C(c3ccc(N(C)C)cc3)c3nnnn3C(C)(C)C)CC2)cc1 (centres unmarked) [Compound 31]
CYP2D6 inhibition (CYP2D6; 3 μM): 9.9% | CYP2D6 inhibition (CYP2D6; 10 μM): 1.4% | CYP3A4-Midazolam inhibition (CYP3A4; 3 μM): −0.9% | CYP3A4-Midazolam inhibition (CYP3A4; 10 μM): 18.1% | CYP2C19 inhibition (CYP2C19; 3 μM): 37.7% | CYP2C19 inhibition (CYP2C19; 10 μM): 55.7% | CYP1A2 inhibition (CYP1A2; 3 μM): 13.5% | CYP1A2 inhibition (CYP1A2; 10 μM): 10.3% | CYP3A-Testosterone inhibition (CYP3A; 3 μM): 2.5% | CYP3A-Testosterone inhibition (CYP3A; 10 μM): 0.7% | Pe [3]: <LLOQ | APP cleavage after OGD ([2]; 0.1 μM compound): blocked | Mean Remaining Parent (NADPH-free) [4]: 75% | Mean Remaining Parent (with NADPH) ([4]; 30 min): 12% | Mean Remaining Parent (NADPH-free) [5]: 86% | Mean Remaining Parent (with NADPH) [5]: 16% | Caco-2 permeability in words (Caco-2 monolayer): highly permeable | A −>B Papp (Caco-2 monolayer; Table 1): 19.3 10^−6 cm · s^−1 | B −> A Papp (Caco-2 monolayer; Table 1): 17.4 10^−6 cm · s^−1 | RE (Caco-2 monolayer; Table 1): 0.9 | CYP2C9 inhibition (CYP2C9; 3 μM): 47.8% | CYP2C9 inhibition (CYP2C9; 10 μM): 69.2%

Cn1c(=O)c2c(nc(S)n2C)n(C)c1=O [Compound 38D-16]
selectivity for AEP over Cathepsin-L (Cathepsin-L): 500 fold | A −>B Papp (Caco-2 monolayer; table of derivatives): 0.9 10^−6 cm · s^−1 | B −> A Papp (Caco-2 monolayer; table of derivatives): 3.0 10^−6 cm · s^−1 | RE (Caco-2 monolayer; table of derivatives): 3.3

Cn1c(S)nc2c1c(=O)n(Cc1ccccc1)c(=O)n2C [Compound 38D-22]
A −>B Papp (Caco-2 monolayer; table of derivatives): 10.0 10^−6 cm · s^−1 | B −> A Papp (Caco-2 monolayer; table of derivatives): 30.5 10^−6 cm · s^−1 | RE (Caco-2 monolayer; table of derivatives): 3.0

CNC(=C[N+](=O)[O-])NCCSCc1ccc(CN(C)C)o1 [Ranitidine, reference compound]
A −>B Papp (Caco-2 monolayer; table of derivatives): 0.2 10^−6 cm · s^−1 | RE (Caco-2 monolayer; table of derivatives): 8.1
